molecular target: human PDE2A1 (Homo sapiens (Human), UniProt O00408); experiment: IMAP fluorescence polarization assay, human PDE2A1 (PDE selectivity panel); type: biochemical; conditions: not given
Experimental: The activity of the compounds in accordance with the present invention as PDE2 inhibitors may be readily determined using a fluorescence polarization (FP) methodology (Huang, W., et al., J. Biomol Screen, 2002, 7: 215).
Dose-inhibition profiles for each compound were characterized by fitting the mP data to a four-parameter equation given below.
Selectivity for PDE2, as compared to other PDE families, was assessed using the IMAP® technology. Human PDE10A2 enzyme was prepared from cytosolic fractions of transiently transfected HEK cells. All other PDE's were GST Tag human enzyme expressed in insect cells and were obtained from BPS Bioscience (San Diego, Calif.): PDE1A (Cat#60010), human PDE2A1 (Cat#60020), PDE3A (Cat#60030), PDE4A1A (Cat#60040), PDE5A1 (Cat#60050), PDE6C (Cat#60060), PDE7A (Cat#60070), PDE8A1 (Cat#60080), PDE9A2 (Cat#60090), PDE11A4 (Cat#60110).
Assays for PDE 1 through 11 were performed in parallel at room temperature in 384-well microtiter plates with an incubation volume of 20.2 μL. Solutions of test compounds were prepared in DMSO and serially diluted with DMSO to yield 30 μL of each of ten solutions differing by 3-fold in concentration, at 32 serial dilutions per plate. […] A Labcyte POD 810 (Labcyte, Sunnyvale, Calif.) was used to dispense 200 nL from each well of the titration plate to make eleven copies of the assay plate for each titration, one copy for each PDE enzyme. A solution of each enzyme (dilution from aliquots, sufficient to produce 20% substrate conversion) and a separate solution of FAM-labeled cAMP or FAM-labeled cGMP from Molecular Devices (Sunnyvale, Calif., product # R7506 or cGMP#R7508), at a final concentration of 50 nM were made in the assay buffer (10 mM Tris HCl, pH 7.2, 10 mM MgCl2, 0.05% NaN3 0.01% Tween-20, and 1 mM DTT). Note that the substrate for PDE2 is 50 nM FAM cAMP containing 1000 nM of cGMP. The enzyme and the substrate were then added to the assay plates in two consecutive additions of 10 μL and then shaken to mix. The reaction was allowed to proceed at room temperature for 60 minutes. A binding solution was then made from the kit components, comprised of 80% Solution A, 20% Solution B and binding reagent at a volume of 1/600 the total binding solution. The enzymatic reaction was stopped by addition of 60 μL of the binding solution to each well of the assay plate. The plates were sealed and shaken for 10 seconds. The plates were incubated at room temperature for one hour, then the parallel and perpendicular fluorescence was measured using a Tecan Genios Pro plate reader (Tecan, Switzerland). The apparent inhibition constants for the compounds against all 11 PDE's was determined from the parallel and perpendicular fluorescent readings as described for PDE10 FP assay using the following apparent KM values for each enzyme and substrate combination: PDE1A (FAM cGMP) 70 nM, human PDE2A1 (FAM cAMP) 10,000 nM, PDE3A (FAM cAMP) 50 nM, PDE4A1A (FAM cAMP) 1500 nM, PDE5A1 (FAM cGMP) 400 nM, PDE6C (FAM cGMP) 700 nM, PDE7A (FAM cAMP) 150 nM, PDE8A1 (FAM cAMP) 50 nM, PDE9A2 (FAM cGMP) 60 nM, PDE10A2 (FAM cAMP) 150 nM, PDE11A4 (FAM cAMP) 1000 nM. The intrinsic PDE2 inhibitory activity of a compound which may be used in accordance with the present invention may be determined by these assays.

Chain of human PDE2A1 (O00408 other isoform, or with tags, fused parts or gaps): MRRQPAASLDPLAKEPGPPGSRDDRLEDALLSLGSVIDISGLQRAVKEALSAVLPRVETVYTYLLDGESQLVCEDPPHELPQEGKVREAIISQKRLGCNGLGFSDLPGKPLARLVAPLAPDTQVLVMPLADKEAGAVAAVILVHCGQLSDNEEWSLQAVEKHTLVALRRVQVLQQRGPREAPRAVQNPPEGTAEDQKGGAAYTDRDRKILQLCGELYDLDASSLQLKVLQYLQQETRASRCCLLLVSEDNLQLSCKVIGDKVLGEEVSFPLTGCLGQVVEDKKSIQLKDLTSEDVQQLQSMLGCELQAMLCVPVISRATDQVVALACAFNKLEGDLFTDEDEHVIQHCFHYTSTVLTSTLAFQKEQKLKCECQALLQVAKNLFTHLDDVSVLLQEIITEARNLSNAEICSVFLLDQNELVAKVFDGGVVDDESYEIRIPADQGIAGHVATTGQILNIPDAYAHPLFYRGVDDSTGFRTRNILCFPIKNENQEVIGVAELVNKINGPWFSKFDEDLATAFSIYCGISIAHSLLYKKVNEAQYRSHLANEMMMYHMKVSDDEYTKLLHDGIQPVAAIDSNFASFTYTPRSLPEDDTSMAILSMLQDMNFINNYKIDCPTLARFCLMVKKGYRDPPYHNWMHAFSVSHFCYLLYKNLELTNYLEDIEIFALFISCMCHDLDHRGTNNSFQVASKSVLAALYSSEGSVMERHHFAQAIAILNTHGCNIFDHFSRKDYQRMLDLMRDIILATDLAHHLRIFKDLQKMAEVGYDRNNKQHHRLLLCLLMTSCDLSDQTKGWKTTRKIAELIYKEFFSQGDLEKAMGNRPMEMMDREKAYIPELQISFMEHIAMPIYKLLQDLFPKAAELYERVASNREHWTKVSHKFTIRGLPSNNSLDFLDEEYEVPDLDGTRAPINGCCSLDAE

Row | inhibition at 3 µM [%] | Structure (SMILES)
1 | 17 | Cc1nc(-c2nnc(C(C)c3ccc(C(F)(F)F)cc3Cl)n2C)cc(=O)[nH]1 (single isomer, unassigned) [Example 67, (R)- or (S)-6-(5-(1-(2-chloro-4-(trifluoromethyl)-phenyl)ethyl)-4-methyl-4H-1,2,4-triazol-3-yl)-2-methylpyrimidin-4(3H)-one]

same assay, conditions: FAM cAMP 50 nM with 1000 nM cGMP

Row | Structure (SMILES) | Ki [nM]
2 | CCC(c1ccc(C(F)(F)F)cc1F)n1cc(-c2cc(=O)[nH]c(C)n2)nn1 (single isomer, unassigned) [Example 37, (R)- or (S)-6-(1-(1-(2-fluoro-4-(trifluoromethyl)phenyl)propyl-1H-1,2,3-triazol-4-yl)-2-methylpyrimidin-4(3H)-one] | 11
3 | CCc1ccc([C@]2(C)CCCc3c(-c4cc(=O)[nH]c(C)n4)nnn32)c(F)c1 (single isomer, unassigned) [Example 95] | 1.8
4 | COc1ccc(Cc2nc(-c3nnn4c3CCC[C@]4(C)c3ccc(C(F)(F)F)cc3F)cc(=O)[nH]2)cc1 (single isomer, unassigned) [Example 90] | 1900
5 | Cc1nc(-c2nnn3c2CCC[C@]3(C)c2ccc(OC(F)(F)F)cc2)cc(=O)[nH]1 (single isomer, unassigned) [Example 77] | 2800
6 | Cc1nc(-c2nnn3c2COCC3c2ccc(C(F)(F)F)cc2)cc(=O)[nH]1 (centres unmarked) [Example 53, 2-methyl-6-(7-(4-(trifluoromethyl)phenyl)-6,7-dihydro-4H-[1,2,3]triazolo[5,1-c][1,4]oxazin-3-yl)pyrimidin-4(3H)-one] | 73.2
7 | Cc1nc(-c2cn(C(C)c3ccc(C(F)(F)F)cc3F)nn2)cc(=O)[nH]1 (single isomer, unassigned) [Example 27, (R)- or (S)-6-(1-(1-(2-fluoro-4-(trifluoromethyl)phenyl)ethyl)-1H-1,2,3-triazol-4-yl)-2-methylpyrimidin-4(3H)-one] | 46.6
8 | COc1cccc(Cc2nc(-c3nnn4c3CCCC4(C)c3ccc(C(F)(F)F)cc3F)cc(=O)[nH]2)c1 (single isomer, unassigned) [Example 91, (S)- or (R)-6-(7-(2-Fluoro-4-(trifluoromethyl)phenyl)-7-methyl-4,5,6,7-tetrahydro-[1,2,3]triazolo[1,5-a]pyridin-3-yl)-2-(3-methoxy-benzyl)pyrimidin-4(3H)-one] | 0.56
9 | Cc1nc(-c2nnn3c2CCC[C@]3(C)c2ccc(C(F)(F)F)cc2C)cc(=O)[nH]1 (single isomer, unassigned) [Example 79] | 8.3
10 | Cc1nc(-n2cnc([C@H](C)c3ccc(C(F)(F)F)cc3F)n2)cc(=O)[nH]1 (single isomer, unassigned) [Example 84] | 224
11 | Cc1nc(-c2cnn(C(C)c3ccc(C(F)(F)F)cc3C)n2)cc(=O)[nH]1 (single isomer, unassigned) [Example 5, (R)- or (S)-2-methyl-6-(2-(1-(2-methyl-4-(trifluoromethyl)phenyl)ethyl)-2H-1,2,3-triazol-4-yl)pyrimidin-4(3H)-one] | 52.2
12 | Cc1nc(-c2nnn3c2CCCCC3c2ccc(C(F)(F)F)cc2)cc(=O)[nH]1 (single isomer, unassigned) [Example 51, (R)- or (S)-2-methyl-6-(8-(4-(trifluoromethyl)phenyl)-5,6,7,8-tetrahydro-4H-[1,2,3]triazolo[1,5-a]azepin-3-yl)pyrimidin-4(3H)-one] | 79.9
13 | Cc1nc(-n2cc([C@H](C)c3ccc(C(F)(F)F)cc3Cl)nn2)cc(=O)[nH]1 (single isomer, unassigned) [Example 74] | 0.42
14 | Cc1nc(-c2nnc3n2CCCC3(C)c2ccc(C(F)(F)F)cc2)cc(=O)[nH]1 (single isomer, unassigned) [Example 73, (S)- or (R)-2-methyl-6-(8-methyl-8-(4-(trifluoromethyl)phenyl)-5,6,7,8-tetrahydro-[1,2,4]triazolo[4,3-a]pyridin-3-yl)pyrimidin-4(3H)-one] | 26.9
15 | Cc1nc(-c2nnn3c2CCC[C@@]3(C)c2ccc(C(F)(F)F)cc2)cc(=O)[nH]1 (single isomer, unassigned) [Example 54] | 16.2
16 | Cc1nc(-c2cn(C(c3ccc(C(F)(F)F)cc3F)C(C)C)nn2)cc(=O)[nH]1 (single isomer, unassigned) [Example 40, (S)- or (R)-6-(1-(1-(2-fluoro-4-(trifluoromethyl)phenyl)-2-methylpropyl)-1H-1,2,3-triazol-4-yl)-2-methylpyrimidin-4(3H)-one] | 22.6
17 | Cc1nc(-c2nnn3c2CCC[C@H]3c2ccc(C(F)(F)F)cc2)cc(=O)[nH]1 (single isomer, unassigned) [Example 48] | 42.4
18 | Cc1nc(-c2nnn3c2CCC[C@]3(C)c2ccc(C(F)(F)F)cc2C)cc(=O)[nH]1 (single isomer, unassigned) [Example 78] | 804

Results, then the compound that gave them:

Row | Ki [nM] | Structure (SMILES)
19 | 7.7 | Cc1nc(-c2nnc(C(C)c3ccc(C(F)(F)F)cc3Cl)n2C)cc(=O)[nH]1 (single isomer, unassigned) [Example 68, (S)- or (R)-6-(5-(1-(2-chloro-4-(trifluoromethyl)-phenyl)ethyl)-4-methyl-4H-1,2,4-triazol-3-yl)-2-methylpyrimidin-4(3H)-one]
20 | 54.3 | Cc1nc(-c2nnc3n2CCC[C@H]3c2ccc(C(F)(F)F)cc2)cc(=O)[nH]1 (single isomer, unassigned) [Example 70]
21 | 2060 | Cc1nc(-c2nnc3n2CCC[C@]3(C)c2ccc(C(F)(F)F)cc2F)cc(=O)[nH]1 (single isomer, unassigned) [Example 80]
22 | 99.6 | CCc1ccc(C(C)(C)n2cc(-c3cc(=O)[nH]c(C)n3)nn2)c(C)c1 [Example 33, 6-(1-(2-(4-ethyl-2-methylphenyl)propan-2-yl)-1H-1,2,3-triazol-4-yl)-2-methylpyrimidin-4(3H)-one]
23 | ~1550 | CCc1ccc(C(C)n2ncc(-c3cc(=O)[nH]c(C)n3)n2)c(Cl)c1 (single isomer, unassigned) [Example 8, (S)- or (R)-6-(2-(1-(2-chloro-4-ethylphenyl)ethyl)-2H-1,2,3-triazol-4-yl)-2-methylpyrimidin-4(3H)-one]
24 | 1.7 | Cc1nc(-c2cn([C@@H](C)c3ccc(C(F)(F)F)cc3Cl)nn2)cc(=O)[nH]1 (single isomer, unassigned) [Example 36]
25 | 36.3 | Cc1nc(-c2cnn([C@H](C)c3ccc(C(F)(F)F)cc3Cl)n2)cc(=O)[nH]1 (single isomer, unassigned) [Example 1]
26 | 10.5 | CCC(c1ccc(C(F)(F)F)cc1F)n1cc(-c2cc(=O)[nH]c(C)n2)nn1 (single isomer, unassigned) [Example 38, (S)- or (R)-6-(1-(1-(2-fluoro-4-(trifluoromethyl)phenyl)propyl)-1H-1,2,3-triazol-4-yl)-2-methylpyrimidin-4(3H)-one]
27 | 46.7 | CCc1ccc(C(C)n2cc(-c3cc(=O)[nH]c(C)n3)nn2)c(Cl)c1 (single isomer, unassigned) [Example 20, (S)- or (R)-6-(1-(1-(2-chloro-4-ethylphenyl)ethyl)-1H-1,2,3-triazol-4-yl)-2-methylpyrimidin-4(3H)-one]
28 | 525 | Cc1nc(-c2nnc(C(C)c3ccc(C(F)(F)F)cc3Cl)[nH]2)cc(=O)[nH]1 (single isomer, unassigned) [Example 66, (S)- or (R)-6-(5-(1-(2-chloro-4-(trifluoromethyl)-phenyl)ethyl)-4H-1,2,4-triazol-3-yl)-2-methylpyrimidin-4(3H)-one]
29 | 56.3 | Cc1nc(-c2nnn3c2CCCCC3(C)c2ccc(C(F)(F)F)cc2F)cc(=O)[nH]1 (single isomer, unassigned) [Example 94, (S)- or (R)-6-(8-(2-Fluoro-4-(triflouromethyl)phenyl)-8-methyl-5,6,7,8-tetrahydro-4H-[1,2,3]triazolo[1,5-a]azepin-3-yl)-2-methylpyrimidin-4(3H)-one]

Reference: US10358435B2, “Triazolyl pyrimidinone compounds as PDE2 inhibitors” (Merck Sharp & Dohme Corp., priority 2015, dated 2019)
